In test [1] the target is T1, complex of human CDK4 and cyclin D3 (Homo sapiens, UniProt P11802).
T1 construct: made in house; host or cells: insect cells, co-infected with baculovirus
The test can be described thus: Inhibition of CDK4/cyclin D retinoblastoma kinase activity (D-type cyclin is D3). The class given is biochemical. The settings on record: superscript a: D-type cyclin is D3; apparent Ki; read-out: Ki CDK 4/D. A digest of the protocol: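 Apparent Ki derived by fitting background-corrected activity to competitive (or, for tight binders, competitive tight-binding) equations with measured ATP Km. Rb phosphorylation by radiolabelled ATP was measured at 30°C, 20 min standard or 60 min at 5 nM complex for tight binders, via nitrocellulose capture and phosphorimager.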

In test [2] the target is T2, complex of human CDK4 and genetically truncated (1-264) cyclin D3 (Homo sapiens, UniProt P11802).
T2 construct: made in house; host or cells: insect cells, co-infected with baculovirus
T2 sequence (P11802 whole entry, the tested form may be a part): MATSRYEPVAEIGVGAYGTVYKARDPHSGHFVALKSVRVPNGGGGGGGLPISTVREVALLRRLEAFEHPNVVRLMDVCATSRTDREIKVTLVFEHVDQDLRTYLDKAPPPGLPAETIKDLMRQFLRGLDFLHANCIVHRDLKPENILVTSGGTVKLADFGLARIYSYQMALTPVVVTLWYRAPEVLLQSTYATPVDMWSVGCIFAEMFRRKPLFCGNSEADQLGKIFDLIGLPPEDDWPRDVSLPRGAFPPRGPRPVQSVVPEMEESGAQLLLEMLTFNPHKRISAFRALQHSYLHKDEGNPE
T2 sequence (P30281 1-264 partner limits assumed): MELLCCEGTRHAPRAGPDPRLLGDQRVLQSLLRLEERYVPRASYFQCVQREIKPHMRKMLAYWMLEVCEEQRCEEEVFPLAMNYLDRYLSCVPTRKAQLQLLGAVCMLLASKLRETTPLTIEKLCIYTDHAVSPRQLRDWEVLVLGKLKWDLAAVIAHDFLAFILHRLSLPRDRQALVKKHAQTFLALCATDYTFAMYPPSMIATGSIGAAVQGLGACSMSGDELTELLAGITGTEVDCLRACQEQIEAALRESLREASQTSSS
Briefly: Inhibition of CDK4/cyclin D retinoblastoma kinase activity (D-type cyclin is truncated D3). Type of test: biochemical. The settings on record: superscript c: D-type cyclin is truncated D3; read-out: Ki CDK 4/D. The protocol: Cyclin-dependent kinase activity was measured by quantifying the enzyme-catalyzed, time-dependent incorporation of radioactive phosphate from [^32P]ATP or [^33P]ATP into a protein substrate. Unless noted otherwise, assays were performed in 96-well plates in a total volume of 50 μL, in the presence of 10 mM HEPES (N-[2-hydroxyethyl]piperazine-N′-[2-ethanesulfonic acid]) (pH 7.4), 10 mM MgCl2, 25 μM adenosine triphosphate (ATP), 1 mg/mL ovalbumin, 5 μg/mL leupeptin, 1 mM dithiothreitol, 10 mM β-glycerophosphate, 0.1 mM sodium vanadate, 1 mM sodium fluoride, 2.5 mM ethylene glycol-bis(β-aminoethyl ether)-N,N,N′N′-tetraacetic acid (EGTA), 2% (v/v) dimethylsulfoxide, and 0.03-0.4 μCi [^32/33P]ATP per reaction. Reactions were initiated with enzyme, incubated at 30° C., and terminated after 20 minutes by the addition of ethylenediaminetetraacetic acid (EDTA) to 250 mM. The phosphorylated substrate was then captured on a nitrocellulose or phosphocellulose membrane using a 96-well filtration manifold, and unincorporated radioactivity was removed by repeated washing with 0.85% phosphoric acid. Radioactivity was quantified by exposing the dried membranes to a phosphorimager.
Apparent Ki values were measured by assaying enzyme activity in the presence of different inhibitor compound concentrations and subtracting the background radioactivity measured in the absence of enzyme. The kinetic parameters (kcat, Km for ATP) were measured for each enzyme under the usual assay conditions by determining the dependence of initial rates on ATP concentration. Inhibition data were fit to an equation for competitive inhibition using Kaleidagraph (Synergy Software), or were fit to an equation for competitive tight-binding inhibition using the software KineTic (BioKin, Ltd.).
A complex of human CDK4 and cyclin D3, or a complex of cyclin D1 and a fusion protein of human CDK4 and gluathione-S-transferase (GST-CDK4), or a complex of human CDK4 and genetically truncated (1-264) cyclin D3, was purified using traditional biochemical chromatographic techniques from insect cells that had been co-infected with the corresponding baculovirus expression vectors (see e.g., Meijer and Kim, “Chemical Inhibitors of Cyclin-Dependent Kinases,” Methods in Enzymol,. vol. 283 (1997), pp. 113-128.). The enzyme complex (5 or 50 nM) was assayed with 0.3-0.5 μg of purified recombinant retinoblastoma protein fragment (Rb) as a substrate. The engineered Rb fragment (residues 386-928 of the native retinoblastoma protein; 62.3 kDa) contains the majority of the phosphorylation sites found in the native 106-kDa protein, as well as a tag of six histidine residues for ease of purification. Phosphorylated Rb substrate was captured by microfiltration on a nitrocellulose membrane and quantified using a phosphorimager as described above. For measurement of tight-binding inhibitors, the enzyme complex concentration was lowered to 5 nM, and the assay duration was extended to 60 minutes, during which the time-dependence of product formation was linear.

The target of the next test is T3, CDK2/cyclin A (Homo sapiens, UniProt P24941).
T3 construct: made in house; host or cells: CDK2: insect cells (baculovirus); cyclin A: E. coli, then limited proteolysis
Briefly: Inhibition of CDK2/cyclin A retinoblastoma kinase activity. The settings on record: read-out: Ki CDK 2/A. The class given is biochemical. A digest of the protocol: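 Baculovirus-expressed CDK2 with excess proteolyzed cyclin A (or purified complex), 150 nM or 5 nM, phosphorylating an Rb fragment with 25 μM [32/33P]ATP, pH 7.4, 30° C, 20 min. Filter-captured radioactivity by phosphorimager; apparent Ki from fits to competitive or tight-binding competitive inhibition using measured ATP Km.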

In test [3] the target is T4, human CDK1 (cdc2) and cyclin B (Homo sapiens, UniProt P06493).
T4 construct: purchased New England Biolabs (Beverly Mass.)
T4 sequence (P06493 whole entry): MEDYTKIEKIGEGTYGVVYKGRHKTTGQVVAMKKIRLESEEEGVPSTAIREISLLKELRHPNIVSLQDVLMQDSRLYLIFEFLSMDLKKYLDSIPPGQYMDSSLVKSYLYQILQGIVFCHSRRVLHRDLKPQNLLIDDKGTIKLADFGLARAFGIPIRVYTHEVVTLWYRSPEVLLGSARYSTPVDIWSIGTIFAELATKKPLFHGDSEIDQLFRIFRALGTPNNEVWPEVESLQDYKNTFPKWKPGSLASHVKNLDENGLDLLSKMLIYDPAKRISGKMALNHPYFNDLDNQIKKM
T4 sequence (P14635 whole entry partner): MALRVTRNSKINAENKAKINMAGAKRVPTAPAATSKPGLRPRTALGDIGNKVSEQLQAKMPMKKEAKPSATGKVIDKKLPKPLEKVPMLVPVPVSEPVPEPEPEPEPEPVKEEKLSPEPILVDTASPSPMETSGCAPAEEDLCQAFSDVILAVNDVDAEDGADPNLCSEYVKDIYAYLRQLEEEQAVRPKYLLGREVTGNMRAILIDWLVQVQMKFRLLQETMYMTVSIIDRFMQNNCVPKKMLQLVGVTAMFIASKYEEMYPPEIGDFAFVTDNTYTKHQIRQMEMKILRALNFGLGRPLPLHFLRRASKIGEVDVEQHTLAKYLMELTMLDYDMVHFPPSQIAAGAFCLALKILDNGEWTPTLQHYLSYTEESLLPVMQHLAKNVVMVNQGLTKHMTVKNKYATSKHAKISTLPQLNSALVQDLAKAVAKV
The test can be described thus: Inhibition of CDK1(cdc2)/cyclin B histone H1 kinase activity. The class given is biochemical. The settings on record: read-out: Ki CDK 1/B. In a few lines:
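CDK1/cyclin B (commercial, or CDK1/GST-cyclin B1 from co-infected insect cells) phosphorylated histone H1 with 25 μM [32/33P]ATP at pH 7.4, 30° C for 20 min, 2% DMSO. Product captured on phosphocellulose and read by phosphorimager; apparent Ki from competitive or tight-binding fits, with Km for ATP determined.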

For another test, the system named is U2-OS. The test can be described thus: Inhibition of cell growth, MTT assay, U2-OS. The settings on record: Homo sapiens, U2OS. Type of test: cell-based. A digest of the protocol:
(§1)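 Cells rested 4 h after plating, then exposed to graded compound concentrations in 0.5% (v/v) DMSO for four to six days (cell-type dependent) at 37° C, 5% CO2. Viability was read by MTT (0.2 mg/mL final, 4 h at 37° C), with DMSO-solubilized formazan measured at 540 nm.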
In general terms: Tetrazolium dyes change colour on reduction, which living cells bring about.

The subject of the next test is Saos-2. The test can be described thus: Inhibition of cell growth, MTT assay, Saos-2. Type of test: cell-based. To be noted: Homo sapiens; Saos-2, MTT assay. In a few lines: as §1
For another test, the system named is HCT116. Briefly: Inhibition of cell growth, MTT assay, HCT116. The class given is cell-based, human. To be noted: Homo sapiens, HCT-116. In a few lines:
as §1

For orientation: IC50 means the midpoint of a concentration-inhibition curve. Low values mean greater potency, high ones weaker potency. The term IC90 denotes the point of the concentration-response curve where the effect stands at 90%.

T1 sequence (P11802 whole entry): as the sequence (P11802 whole entry, the tested form may be a part) above
T1 sequence (P30281 whole entry partner): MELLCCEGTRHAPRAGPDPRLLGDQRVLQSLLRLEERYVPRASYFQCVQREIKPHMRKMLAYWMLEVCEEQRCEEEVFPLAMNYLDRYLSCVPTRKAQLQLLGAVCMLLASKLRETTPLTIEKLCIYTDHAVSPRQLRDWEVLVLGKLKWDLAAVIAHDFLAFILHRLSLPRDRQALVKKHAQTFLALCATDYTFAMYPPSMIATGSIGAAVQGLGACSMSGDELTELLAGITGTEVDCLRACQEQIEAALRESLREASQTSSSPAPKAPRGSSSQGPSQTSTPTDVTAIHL

`Nc1nc(Nc2ccc(S(N)(=O)=O)cc2)sc1C(=O)c1c(F)cc(F)cc1F` [C(115), 4-[4-Amino-5-(2,4,6-trifluoro-benzoyl)-thiazol-2-yl-amino]-benzenesulfonamide]: the Ki in test [1] came to 57 nM; in test [2], 55 nM; at CDK2/cyclin A, 18 nM; in test [3], 50 nM. Besides, the results for the IC50 in the test with U2-OS and with Saos-2 were 2700 nM and 800 nM, respectively. Besides, the IC90 in the test on U2-OS is 5 µM; in the test with Saos-2, 2200 nM.
With `Cc1ccsc1C(=O)c1sc(Nc2ccc(N(C)CCN(C)C)cc2)nc1N` [C(117), (4-Amino-2-{4-[(2-dimethylamino-ethyl)-methyl-amino]-phenylamino}-thiazol-5-yl)-(3-methyl-thiophen-2-yl)-methanone], the Ki in test [2] amounted to 10 nM; on CDK2/cyclin A, 423 nM; in test [3], 417 nM. In addition, the IC50 stood at 1800 nM with HCT116, 900 nM with U2-OS and 890 nM with Saos-2. The IC90 in the test on HCT116 is 2900 nM; in the test with U2-OS, 1.7 µM; in the test on Saos-2, 1500 nM.
Consider `Nc1nc(Nc2ccc(N3CCN(CC4CC4)CC3)cc2)sc1C(=O)c1c(F)cccc1F` [C(121), {4-Amino-2-[4-(4-cyclopropylmethyl-piperazin-1-yl)-phenylamino]-thiazol-5-yl}-(2,6-difluoro-phenyl)-methanone], for which the Ki in test [2] was 10.6 nM; at CDK2/cyclin A, 953 nM. The IC50 in the test with HCT116 amounted to 2500 nM; with U2-OS, 6000 nM; with Saos-2 it was 5100 nM. Also, the IC90 in the test on HCT116 was determined as 5300 nM; with U2-OS it was 11 µM; with Saos-2 it was 12000 nM.
Regarding `Nc1nc(Nc2ccc(-c3ccncc3)cc2)sc1C(=O)c1c(F)cccc1F` [C(122), [4-Amino-2-(4-pyridin-4-yl-phenylamino)-thiazol-5-yl]-(2,6-difluoro-phenyl)-methanone], the Ki in test [2] was determined as 35 nM; at CDK2/cyclin A, 165 nM. Moreover, the IC50 was 1700 nM in the test on HCT116, 1500 nM with U2-OS and 3700 nM in the test on Saos-2. In addition, the IC90 in the test with HCT116 came out at 4800 nM; with U2-OS, 4.7 µM; with Saos-2 it was 10000 nM.
For the compound `C[C@@H]1CN(c2ccc(Nc3nc(N)c(C(=O)c4c(F)cccc4F)s3)cc2)CCN1C` [C(124), {4-Amino-2-[4-(3R,4-dimethyl-piperazin-1-yl)-phenylamino]-thiazol-5-yl}-(2,6-difluoro-phenyl)-methanone], the Ki was found to be 17 nM in test [2], 611 nM at CDK2/cyclin A and 680 nM in test [3]. Further, the IC50 was determined as 540 nM in the test on HCT116, 1300 nM in the test with U2-OS and 980 nM in the test on Saos-2. The IC90 in the test with HCT116 was found to be 1600 nM; in the test with U2-OS, 2.5 µM; in the test with Saos-2, 1600 nM.
Consider `C[C@H]1CN(c2ccc(Nc3nc(N)c(C(=O)c4c(F)cccc4F)s3)cc2)CCN1C` [C(125), {4-Amino-2-[4-(3S,4-dimethyl-piperazin-1-yl)-phenylamino]-thiazol-5-yl}-(2,6-difluoro-phenyl)-methanone], for which the Ki in test [2] worked out at 5.4 nM; on CDK2/cyclin A, 602 nM; in test [3], 650 nM. Moreover, the results for the IC50 with HCT116, with U2-OS and with Saos-2 were 620 nM, 1200 nM and 900 nM, respectively. For the same compound, the IC90 came out at 1800 nM in the test with HCT116, 2.3 µM in the test on U2-OS and 1500 nM with Saos-2.
For the compound `CN(C)CCCN(C)c1ccc(Nc2nc(N)c(C(=O)c3c(F)cccc3F)s2)cc1` [C(126), (4-Amino-2-{4-[(3-dimethylamino-propyl)-methyl-amino]-phenylamino}-thiazol-5-yl)-(2,6-difluoro-phenyl)-methanone], the Ki in test [2] is 24 nM. Also, the Ki on CDK2/cyclin A was determined as 390 nM. In the test with HCT116, 600 nM corresponded to half-maximal inhibition (IC50) and the IC90 was found to be 1400 nM.
For the compound `Nc1nc(Nc2ccc(N3CCN(c4ccncc4)CC3)cc2)sc1C(=O)c1c(F)cccc1F` [C(127)], the Ki was 26 nM in test [2] and 215 nM at CDK2/cyclin A.
Consider `CN1CCCN(c2ccc(Nc3nc(N)c(C(=O)c4c(F)cccc4F)s3)cc2)CC1` [C(128), {4-Amino-2-[4-(1-methyl-[1,4]-diazepan-4-yl)-phenylamino]-thiazol-5-yl}-(2,6-difluoro-phenyl)-methanone], for which the Ki in test [2] was determined as 30 nM; on CDK2/cyclin A, 440 nM.
The like results for `CN(CCC#N)c1ccc(Nc2nc(N)c(C(=O)c3c(F)cccc3F)s2)cc1` [C(129), 3-({4-[4-Amino-5-(2,6-difluorobenzoyl)-thiazol-2-yl-amino]-phenyl}-methylamino)-propionitrile] were, in that order, 64 nM and 270 nM.
As to `CC1(C)CN(c2ccc(Nc3nc(N)c(C(=O)c4c(F)cccc4F)s3)cc2)CCN1` [J(6), {4-Amino-2-[4-(3,3-dimethyl-piperazin-1-yl)-phenylamino]-thiazol-5-yl}-(2,6-difluoro-phenyl)-methanone], the Ki in test [2] turned out to be 8.1 nM; at CDK2/cyclin A, 548 nM; in test [3], 511 nM. Further, the IC50 in the test with HCT116 worked out at 260 nM; with U2-OS, 510 nM; in the test with Saos-2, 470 nM. Moreover, the IC90 in the test with HCT116 came out at 600 nM; with U2-OS, 1.3 µM; in the test with Saos-2 it was 770 nM.
Regarding `Nc1nc(Nc2ccc(N3CCN(c4ccccn4)CC3)cc2)sc1C(=O)c1c(F)cccc1F` [K, {4-Amino-2-[4-(4-pyridin-2-yl-piperazin-1-yl)-phenylamino]-thiazol-5-yl}-(2,6-difluoro-phenyl)-methanone], the Ki in test [2] is 43 nM; at CDK2/cyclin A, 364 nM. Also, the IC50 in the test on HCT116 is 3500 nM; with U2-OS it was 3500 nM; in the test on Saos-2, 6000 nM. Also, the values for the IC90 with HCT116, in the test on U2-OS and with Saos-2 were 6200 nM, 6 µM and 13000 nM, respectively.
As to `NC(=O)C1CCN(c2ccc(Nc3nc(N)c(C(=O)c4c(F)cccc4F)s3)cc2)CC1` [L, {4-Amino-2-[4-(4-carboxamido-piperidin-1-yl)-phenylamino]-thiazol-5-yl}-(2,6-difluoro-phenyl)-methanone], the Ki in test [2] was 22 nM; in test [3] it was 193 nM. In the test with HCT116, this compound displayed an IC50 of more than 12500 nM.
Turning to `Nc1nc(Nc2ccc(N3CCC(C(=O)O)CC3)cc2)sc1C(=O)c1c(F)cccc1F` [M, 1-{4-[4-Amino-5-(2,6-difluoro-benzoyl)-thiazol-2-ylamino]-phenyl}-piperidine-4-carboxylic Acid], the Ki in test [2] is 46 nM; at CDK2/cyclin A it was 290 nM. The same compound had an IC50 in the test with HCT116 of more than 25000 nM.

Source of the values: patent publication US6569878B1, “Substituted 4-amino-thiazol-2-yl compounds as cyclin-dependent kinase inhibitors” (Agouron Pharmaceuticals Inc., priority 1997, dated 2003).
